Test results as given in patent publication US20090123389A1, “Methods for modulating Th17 cell development in the treatment and prevention of cellulite” (priority 2007, published 2009).
Values joined by “and” are separate entries in the source; they are usually repeats but may differ in a detail not shown here. Identical values can stand only once.

Legend:
Jurkat T cells = assay: Apoptosis of Jurkat T cells (Annexin V / PI, flow cytometry); format: cell-based; conditions: 100 nM HF, cultured for 30 hours
Protocol: The non-specific cytoxicity of HF in both normal and transformed T-cells at high doses was evaluated. Anti-CD3/anti-CD28 activated primary T cells were harvested 6 days after activation and cultured in the presence of IL-2 with or without HF (100 nM). As a positive control, some T cells were cultured without IL-2 to induce apoptosis (FIG. 3A). Jurkat T cells, a transformed T cell leukemia line, were cultured in complete medium with or without HF (100 nM) as indicated (FIG. 3B). Both primary and Jurkat T cells were cultured for 30 hours and programmed cell death, i.e. apoptosis, was determined by Annexin V staining and propidium iodide (PI) uptake and cells were analyzed by flow cytometry. The percent of apoptotic T cells at each time point was plotted and was defined as Annexin V^+ PI^−. […] In further experiments, titrating amounts of HF were added to primary T cells and apoptosis was determine as above at the indicated time points. At 100 nM HF, but not 30 nM or lower, generalized T-cell apoptosis was observed (FIG. 3C).

CD4+ CD25− T cells [1] = assay: Quantitative real-time PCR of AAR-associated genes in activated T cells; format: cell-based, mouse; conditions: 10 nM HF, within 4 hours of T cell activation
Protocol: FIG. 12C is a graph depicting the results of quantitative real-time PCR performed on cDNA generated from resting naïve T cells (TN) or T cells activated for 4 hours in the presence of 10 nM MAZ1310 or 10 nM HF. Asns, Gpt2 or eIF4Ebp1 mRNA expression was normalized to Hprt levels and data are presented as mean values±SD in duplicate samples.
Quantitative real-time PCR: T cells were activated as described above, collected at the indicated times and pellets were flash-frozen in liquid nitrogen. Total RNA was obtained by RNeasy (Quiagen, Valencia, Calif.) column purification per manufacturers instructions. RORγt expression was determined after reverse transcription using the message sensor kit (Ambion, Austin, Tex.) per manufacturers instructions and taqman primers and probe as described elsewhere (I. Ivanov, et al., Cell 126, 1121, 2006). Sybrgreen quantitative real-time PCR was performed on T cell RNA samples following reverse transcription via SuperScript II first-strand cDNA synthesis kit (Invitrogen, Carlsbad, Calif.). All PCR data was collected on an iCycler thermal cycler (Biorad, Hercules, Calif.). Primer sequences used for detecting stress response genes are listed below.

CD4+ CD25− T cells [2] = assay: Foxp3 (Treg marker) expression in TGFβ/IL-6 treated T cells; format: cell-based, mouse
Protocol: Low doses of halofuginone (HF) were tested to determine the ability of HF to enhance Treg differentiation, while suppressing Th17 differentiation. Naïve CD4+ T cells (CD4+ CD25−) were isolated from the spleen and peripheral lymph nodes of C57B/6 mice. T cells were then activated using anti-CD3 (0.3 μg/ml) and anti-CD28 (0.5 μg/ml) antibodies either in media alone (row 1, 4), TGFβ alone (3 ng/ml—row 2, 5) or TGFβ (3 ng/ml) plus IL-6 (30 ng/ml) (row 3, 6). […] T cells were cultured for 3 days and CD25 and Foxp3 expression (Treg marker genes) was determine by FACS staining and flow cytometric analyses. Simultaneously, T cells were harvested and re-stimulated for 4 hours using phorbol myristic acetate (PMA; 10 nM), Ionomycin (1 μM) and cytokine secretion was prevented using brefeldin A (20 μg/ml). Following stimulation, the production of IL-17 and IFNγ were determined by intracellular staining and analyzed via flow cytometry. […]
FACS analyses and sorting: All cell surface staining was performed in FACS buffer (PBS/2% FCS/0.1% NaN3) and antibodies were incubated with cells on ice for 20-30 minutes. […] All FACS data was acquired on a FACSCalibur flow cytometer (BD Pharmingen) and analyzed using FlowJo software (Treestar, Inc., Ashland, Oreg.). […]

O=C(CC1NCCCC1O)Cn1cnc2cc(Br)c(Cl)cc2c1=O (racemic) [HF, 7-bromo-6-chloro-3-[3-(3-hydroxy-2-piperidinyl)-2-oxopropyl]-4(3H)-quinazolinone]
apoptosis of Jurkat T cells (Jurkat T cells): significant apoptosis
AAR-associated genes (Asns, Gpt2, eIF4Ebp1) mRNA by qPCR (CD4+ CD25− T cells [1]): induced
Foxp3 expression of T cells differentiated in the presence of HF (CD4+ CD25− T cells [2]; 10 nM HF, TGFβ plus IL-6, day 3): enhanced Foxp3 expression
HF concentration that increased expression of the Treg marker FoxP3 (CD4+ CD25− T cells [2]; TGFβ/IL-6 treated T-cells, 3 days): 2.5 to 10 nM and 2.2 to 10 nM
